In patent publication US9801878B2, “Quinoline derivatives as PDE10A enzyme inhibitors” (H. Lundbeck A/S, priority 2011, dated 2017):

How the values were obtained:
PDE10A enzyme = PDE10A enzyme (Homo sapiens (Human), UniProt Q9Y233); experiment: PDE10A inhibition assay; format: biochemical
Method: Active PDE10A enzyme is prepared in a number of ways for use in PDE assays (Loughney, K. et al. Gene 1999, 234, 109-117; Fujishige, K. et al. Eur J Biochem. 1999, 266, 1118-1127 and Soderling, S. et al. Proc. Natl. Acad. Sci. 1999, 96, 7071-7076). PDE10A can be expressed as full-length proteins or as truncated proteins, as long as they express the catalytic domain. PDE10A can be prepared in different cell types, for example insect cells or E. coli. […]
A PDE10A assay may for example, be performed as follows: The assay is performed in 60 uL samples containing a fixed amount of the relevant PDE enzyme (sufficient to convert 20-25% of the cyclic nucleotide substrate), a buffer (50 mM HEPES7.6; 10 mM MgCl2; 0.02% Tween20), 0.1 mg/ml BSA, 225 pCi of ^3H-labelled cyclic nucleotide substrate, tritium labeled cAMP to a final concentration of 5 nM and varying amounts of inhibitors. […] The beads are allowed to settle for one hr in the dark before the plates are counted in a Wallac 1450 Microbeta counter. The measured signal can be converted to activity relative to an uninhibited control (100%) and IC50 values can be calculated using the Xlfit extension to EXCEL.

[1] = rats; cited from earlier work
[2] = rats, cited from earlier work
[3] = rats; cited from earlier work; remark: listed apart in the source

PDE10A enzyme, sequence (Q9Y233 716-1055): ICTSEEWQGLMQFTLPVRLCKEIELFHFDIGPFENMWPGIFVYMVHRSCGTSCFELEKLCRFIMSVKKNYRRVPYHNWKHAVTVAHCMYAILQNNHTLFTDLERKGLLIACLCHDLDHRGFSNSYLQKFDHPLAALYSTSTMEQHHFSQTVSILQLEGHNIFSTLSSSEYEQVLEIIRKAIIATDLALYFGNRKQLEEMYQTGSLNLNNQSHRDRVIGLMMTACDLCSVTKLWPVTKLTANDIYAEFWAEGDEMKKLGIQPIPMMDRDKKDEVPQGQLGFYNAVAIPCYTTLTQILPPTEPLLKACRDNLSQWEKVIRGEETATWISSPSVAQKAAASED

Cc1ncc(C)n2nc(CCc3ccc4ccccc4n3)nc12 [2-[2-(5,8-Dimethyl-[1,2,4]triazolo[1,5-a]pyrazin-2-yl)-ethyl]-quinoline]
IC50 (PDE10A enzyme): 7.4 nM

COc1ccc(Cc2nccc3cc(OC)c(OC)cc23)cc1OC [Papaverine]
hyperactivity induced by PCP [1]: reduced hyperactivity | catalepsy on its own ([2]; alone): did not cause catalepsy on its own | cataleptic effect of the D2 receptor antagonist haloperidol ([2]; with haloperidol): potentiated the cataleptic effect | reduction of amphetamine induced hyperactivity [3]: insignificant
